Test results: ChEMBL document CHEMBL6127034, “Design, synthesis and biological evaluation of a novel PAK1 degrader for the treatment of triple negative breast cancer” (Bioorg Med Chem, 2024)
Active and inactive are the calls of the source. The rule behind the calls is not given here.

Tests used:
[1] = target: T1, Serine/threonine-protein kinase PAK 1 (Homo sapiens, UniProt Q13153); experiment: In vivo inhibition of PAK1 phosphorylation at S144 in human MDA-MB-231 cells xenografted in BALB/c mouse at 20 mg/kg, ip qd for 12 days by Western blot analysis; type: functional, organism-based; details: time 12.0 day
MDA-MB-231 [2] = experiment: Induction of apoptosis in human MDA-MB-231 cells assessed as late apoptotic cells at 2.5 to 10 uM incubated for 24 hrs by Annexin V-FITC/PI staining based flow cytometry (reference value: 2.46 %); type: functional; details: dose 2.5-10 µM
MDA-MB-231 [3] = experiment: Induction of apoptosis in human MDA-MB-231 cells assessed as decrease in Bcl-2 level at 2.5 to 10 uM incubated upto 48 hrs by Western blot analysis; type: functional, cell-based; details: dose 2.5-10 µM
MDA-MB-231 [4] = experiment: Induction of apoptosis in human MDA-MB-231 cells assessed as increase in Bax level at 2.5 to 10 uM incubated upto 48 hrs by Western blot analysis; type: functional, cell-based; details: dose 2.5-10 µM
MDA-MB-231 [5] = experiment: Induction of apoptosis in human MDA-MB-231 cells assessed as necrotic cells at 2.5 uM incubated for 12 to 48 hrs by Annexin V-FITC/PI staining based flow cytometry (reference value: 0.43 %); type: functional; details: time 12-48 hrs
MDA-MB-231 [6] = experiment: Antiproliferative activity against human MDA-MB-231 cells assessed as decrease in colony formation by crystal violet staining based analysis; type: functional, cell-based; details: dose <= 10.0 µM
MDA-MB-231 [7] = experiment: Induction of apoptosis in human MDA-MB-231 cells assessed as late apoptotic cells at 2.5 uM incubated for 12 to 48 hrs by Annexin V-FITC/PI staining based flow cytometry (reference value: 1.48 %); type: functional; details: time 12-48 hrs
[8] = target: T1, Serine/threonine-protein kinase PAK 1; experiment: Induction of thermal stability of PAK1 in human MDA-MB-231 cells at 10 uM under 37 to 67 degreeC heat exposure by CETSA; type: cell-based
MDA-MB-231 [9] = experiment: Induction of apoptosis in human MDA-MB-231 cells xenografted in BALB/c mouse assessed as increase in E-Cadherin level at 20 mg/kg, ip qd for 12 days by Western blot analysis; type: functional, organism-based; details: time 12.0 day
MDA-MB-231 [10] = experiment: Inhibition of cell proliferation of human MDA-MB-231 cells at 2.5 uM by crystal violet staining based colony formation assay; type: functional
MDA-MB-231 [11] = experiment: Induction of apoptosis in human MDA-MB-231 cells assessed as increase in cleaved caspase-3 level at 2.5 to 10 uM incubated upto 48 hrs by Western blot analysis; type: functional, cell-based; details: dose 2.5-10 µM
MDA-MB-231 [12] = experiment: Inhibition of cell migration in human MDA-MB-231 cells at 2.5 uM incubated for 24 hrs by transwell assay; type: functional, cell-based
[13] = target: Serine/threonine-protein kinase PAK 2 (Homo sapiens) (UniProt Q13177); experiment: Inhibition of PAK2 in human MDA-MB-231 cells incubated upto 48 hrs by Western blot analysis; type: cell-based
[14] = target: von Hippel-Lindau disease tumor suppressor/Serine/threonine-protein kinase PAK 1 (Homo sapiens, UniProt Q13153+P40337); experiment: PROTAC activity at VHL/PAK1 in human MDA-MB-231 cells assessed as induction of protein degradation incubated for 48 hrs in presence of Bortezomib by Western blot analysis; type: cell-based
[15] = target: T1, Serine/threonine-protein kinase PAK 1; experiment: Binding affinity to CM5 chip-immobilized recombinant PAK1 (unknown origin) by SPR analysis
MDA-MB-231 [16] = experiment: Antiproliferative activity against human MDA-MB-231 cells incubated for 48 hrs by MTT assay; type: functional, cell-based; details: MDA-MB-231, 48 h
MDA-MB-231 [17] = experiment: Inhibition of 3D-spherioid formation of human MDA-MB-231 cells at 2.5 uM by crystal violet staining based colony formation assay; type: functional, cell-based
MDA-MB-231 [18] = experiment: Antitumor activity against human MDA-MB-231 cells xenografted in BALB/c mouse assessed as reduction in tumor growth rate at 20 mg/kg, ip qd for 12 days; type: functional, organism-based; details: time 12.0 day
MDA-MB-231 [19] = experiment: Induction of apoptosis in human MDA-MB-231 cells assessed as viable cells at 2.5 to 10 uM incubated for 12 hrs by Annexin V-FITC/PI staining based flow cytometry (reference value: 94.8 %); type: functional; details: dose 2.5-10 µM
MDA-MB-231 [20] = experiment: Antiproliferative activity against human MDA-MB-231 cells assessed as decrease in green fluorescence by EdU staining based analysis; type: functional, cell-based
[21] = target: T1, Serine/threonine-protein kinase PAK 1; experiment: Binding affinity to CM5 chip-immobilized recombinant PAK1 (unknown origin) assessed as dissociation constant by SPR analysis
[22] = target: T1, Serine/threonine-protein kinase PAK 1; experiment: In vivo inhibition of PAK1 phosphorylation at S199 in human MDA-MB-231 cells xenografted in BALB/c mouse at 20 mg/kg, ip qd for 12 days by Western blot analysis; type: functional, organism-based; details: time 12.0 day
[23] = Toxicity in BALB/c mouse xenografted with human MDA-MB-231 cells assessed as animal growth at 20 mg/kg, ip qd for 12 days; type: organism-based; details: in vivo, 288 h, time 12 day
MDA-MB-231 [24] = experiment: Inhibition of formation of human MDA-MB-231 cells tumor sphere by crystal violet staining based analysis; type: functional, cell-based; details: time <= 48.0 hrs, TDE = time-dependent effect
MDA-MB-231 [25] = experiment: Antitumor activity against human MDA-MB-231 cells xenografted in BALB/c mouse assessed as reduction in tumor volume at 20 mg/kg, ip qd for 12 days; type: functional, organism-based; details: time 12.0 day
MDA-MB-231 [26] = experiment: Antiproliferative activity against human MDA-MB-231 cells assessed as decrease in Ki-67 expression at 5 uM incubated for 24 hrs by immunofluorescence based analysis; type: functional, cell-based
[27] = target: Serine/threonine-protein kinase PAK 3 (Homo sapiens) (UniProt O75914); experiment: Inhibition of PAK3 in human MDA-MB-231 cells incubated upto 48 hrs by Western blot analysis; type: cell-based
MDA-MB-231 [28] = experiment: Inhibition of cell proliferation of human MDA-MB-231 cells assessed as decrease in Ki-67 expression at 2.5 uM incubated for 24 hrs by immunofluorescence based analysis; type: functional
MDA-MB-231 [29] = experiment: Induction of apoptosis in human MDA-MB-231 cells assessed as necrotic cells at 2.5 to 10 uM incubated for 12 hrs by Annexin V-FITC/PI staining based flow cytometry (reference value: 1.08 %); type: functional; details: dose 2.5-10 µM
MDA-MB-231 [30] = experiment: Induction of apoptosis in human MDA-MB-231 cells assessed as late apoptotic cells at 2.5 to 10 uM incubated for 48 hrs by Annexin V-FITC/PI staining based flow cytometry (reference value: 2.46 %); type: functional; details: dose 2.5-10 µM
[31] = target: T1, Serine/threonine-protein kinase PAK 1; experiment: In vivo inhibition of PAK1 in human MDA-MB-231 cells xenografted in BALB/c mouse at 20 mg/kg, ip qd for 12 days by IHC analysis; type: functional, organism-based; details: time 12.0 day
[32] = target: T1, Serine/threonine-protein kinase PAK 1; experiment: Inhibition of PAK1 in human MDA-MB-231 cells assessed as decrease in ERK1/2 phosphorylation at Thr202/Tyr204 incubated upto 48 hrs by Western blot analysis; type: cell-based
MDA-MB-231 [33] = experiment: Induction of apoptosis in human MDA-MB-231 cells assessed as increase in cleaved caspase-9 level at 2.5 to 10 uM incubated upto 48 hrs by Western blot analysis; type: functional, cell-based; details: dose 2.5-10 µM
[34] = target: T1, Serine/threonine-protein kinase PAK 1; experiment: Inhibition of PAK1 phosphorylation at S144 in human MDA-MB-231 cells incubated upto 48 hrs by Western blot analysis; type: cell-based
MDA-MB-231 [35] = experiment: Induction of apoptosis in human MDA-MB-231 cells xenografted in BALB/c mouse assessed as increase in cleaved caspase-3 level at 20 mg/kg, ip qd for 12 days by Western blot analysis; type: functional, organism-based; details: time 12.0 day

T1 sequence (Q13153 whole entry): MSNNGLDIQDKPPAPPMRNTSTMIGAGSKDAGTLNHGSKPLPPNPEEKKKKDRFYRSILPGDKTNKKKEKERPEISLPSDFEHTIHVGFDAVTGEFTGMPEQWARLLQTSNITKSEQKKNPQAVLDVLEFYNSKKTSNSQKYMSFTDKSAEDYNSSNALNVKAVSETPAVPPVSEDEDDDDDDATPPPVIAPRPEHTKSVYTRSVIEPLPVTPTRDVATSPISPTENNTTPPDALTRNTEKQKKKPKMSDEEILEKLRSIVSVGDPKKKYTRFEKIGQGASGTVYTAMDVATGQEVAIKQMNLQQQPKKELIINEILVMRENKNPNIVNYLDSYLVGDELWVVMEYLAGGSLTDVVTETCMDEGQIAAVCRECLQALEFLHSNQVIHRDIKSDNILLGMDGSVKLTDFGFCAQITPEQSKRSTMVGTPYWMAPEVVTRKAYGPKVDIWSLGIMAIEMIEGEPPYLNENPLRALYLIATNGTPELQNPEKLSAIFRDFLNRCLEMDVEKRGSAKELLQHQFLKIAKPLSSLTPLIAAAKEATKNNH
Chain of Serine/threonine-protein kinase PAK 3 (Homo sapiens) (O75914 whole entry, looked up): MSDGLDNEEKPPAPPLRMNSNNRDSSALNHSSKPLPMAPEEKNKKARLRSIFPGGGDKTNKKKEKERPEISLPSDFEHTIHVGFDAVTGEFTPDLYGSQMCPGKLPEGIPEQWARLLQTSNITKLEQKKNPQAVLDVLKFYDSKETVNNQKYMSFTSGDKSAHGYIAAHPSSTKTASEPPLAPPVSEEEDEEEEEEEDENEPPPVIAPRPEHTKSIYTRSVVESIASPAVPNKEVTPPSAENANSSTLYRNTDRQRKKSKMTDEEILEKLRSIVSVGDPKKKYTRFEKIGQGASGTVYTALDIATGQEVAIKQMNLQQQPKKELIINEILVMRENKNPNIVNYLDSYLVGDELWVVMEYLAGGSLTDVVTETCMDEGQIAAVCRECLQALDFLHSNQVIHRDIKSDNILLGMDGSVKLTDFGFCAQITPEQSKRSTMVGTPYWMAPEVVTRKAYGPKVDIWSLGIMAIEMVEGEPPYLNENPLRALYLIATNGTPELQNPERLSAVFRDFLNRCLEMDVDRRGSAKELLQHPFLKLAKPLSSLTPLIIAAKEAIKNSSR
Chain of von Hippel-Lindau disease tumor suppressor/Serine/threonine-protein kinase PAK 1 (Q13153 2-545 limits assumed): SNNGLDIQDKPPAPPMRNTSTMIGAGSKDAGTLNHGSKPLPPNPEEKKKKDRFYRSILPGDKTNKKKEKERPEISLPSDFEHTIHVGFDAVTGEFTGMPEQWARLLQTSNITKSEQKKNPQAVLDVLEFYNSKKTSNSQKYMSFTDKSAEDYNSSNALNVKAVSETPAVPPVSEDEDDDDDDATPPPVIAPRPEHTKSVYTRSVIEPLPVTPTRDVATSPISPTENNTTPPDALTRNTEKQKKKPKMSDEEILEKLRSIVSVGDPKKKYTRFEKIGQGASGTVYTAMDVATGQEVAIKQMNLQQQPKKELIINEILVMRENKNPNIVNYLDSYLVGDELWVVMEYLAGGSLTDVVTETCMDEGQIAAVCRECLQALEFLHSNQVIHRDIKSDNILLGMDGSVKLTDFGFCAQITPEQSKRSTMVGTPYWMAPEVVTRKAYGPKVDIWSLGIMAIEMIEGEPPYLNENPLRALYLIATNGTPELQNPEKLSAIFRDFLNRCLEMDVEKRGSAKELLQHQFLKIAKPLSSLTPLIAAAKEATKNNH
Chain of von Hippel-Lindau disease tumor suppressor/Serine/threonine-protein kinase PAK 1 (P40337 whole entry partner): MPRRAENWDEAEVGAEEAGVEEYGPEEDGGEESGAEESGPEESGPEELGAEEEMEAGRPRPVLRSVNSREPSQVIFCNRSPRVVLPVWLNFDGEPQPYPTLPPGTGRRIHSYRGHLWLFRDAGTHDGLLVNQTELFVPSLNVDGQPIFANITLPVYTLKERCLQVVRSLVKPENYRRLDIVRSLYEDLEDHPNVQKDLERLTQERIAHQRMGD
Chain of Serine/threonine-protein kinase PAK 2 (Homo sapiens) (Q13177 whole entry): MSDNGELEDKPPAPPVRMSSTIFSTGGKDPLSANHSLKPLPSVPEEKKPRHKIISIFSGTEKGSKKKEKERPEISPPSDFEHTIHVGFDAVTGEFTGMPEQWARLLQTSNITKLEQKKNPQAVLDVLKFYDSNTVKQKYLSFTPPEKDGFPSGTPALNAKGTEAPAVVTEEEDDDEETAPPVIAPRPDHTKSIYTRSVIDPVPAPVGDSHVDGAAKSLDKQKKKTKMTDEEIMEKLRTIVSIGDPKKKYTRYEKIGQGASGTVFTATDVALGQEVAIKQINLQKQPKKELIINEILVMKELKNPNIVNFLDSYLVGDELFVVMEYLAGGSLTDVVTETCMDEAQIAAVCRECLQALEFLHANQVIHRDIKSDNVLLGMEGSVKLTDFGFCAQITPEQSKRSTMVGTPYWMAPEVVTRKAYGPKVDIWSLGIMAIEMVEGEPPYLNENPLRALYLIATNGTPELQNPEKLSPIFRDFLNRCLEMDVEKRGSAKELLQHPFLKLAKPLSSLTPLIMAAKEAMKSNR

inhibition [1]: Active
Activity [8]: Active
inhibition [13]: inactive
Activity [14]: inactive
Activity [15]: Dose-Dependent Effect
IC50 (MDA-MB-231 [16]): 1.27 µM
Kd [21]: 16.2 µM
inhibition [22]: Active
inhibition [27]: inactive
inhibition [31]: Active
inhibition [32]: Active
inhibition [34]: Active
Compound: Cc1ncsc1-c1ccc([C@H](C)NC(=O)[C@@H]2C[C@@H](O)CN2C(=O)[C@@H](NC(=O)CCc2cn(CCCCCCCn3c(=O)c(-c4ccc(Cl)cc4Cl)cc4cnc(NC5CC5)nc43)nn2)C(C)(C)C)cc1
Activity (MDA-MB-231 [2]): 6.74%
Activity (MDA-MB-231 [3]): Active
Activity (MDA-MB-231 [4]): Active
Activity (MDA-MB-231 [5]): 1.4%
Activity (MDA-MB-231 [6]): Dose-Dependent Effect
Activity (MDA-MB-231 [7]): 8.21%
Activity (MDA-MB-231 [9]): Active
inhibition (MDA-MB-231 [10]): Active
Activity (MDA-MB-231 [11]): Active
inhibition (MDA-MB-231 [12]): Active
inhibition (MDA-MB-231 [17]): Active
Activity (MDA-MB-231 [18]): Active
Activity (MDA-MB-231 [19]): 86.3%
Activity (MDA-MB-231 [20]): Active
Activity [23]: Non-Toxic
inhibition (MDA-MB-231 [24]): Tde
Activity (MDA-MB-231 [25]): Active
Activity (MDA-MB-231 [26]): Active
inhibition (MDA-MB-231 [28]): Active
Activity (MDA-MB-231 [29]): 3.7%
Activity (MDA-MB-231 [30]): 4.94%
Activity (MDA-MB-231 [33]): Active
Activity (MDA-MB-231 [35]): Active
